In ChEMBL document CHEMBL4834428 (J Med Chem, 2021) one finds IC50 data, which are given here for 45 compounds.

Assay [1] addresses T1, NAD-dependent protein deacetylase sirtuin-2 (Homo sapiens, UniProt Q8IXJ6).
T1 sequence (Q8IXJ6 whole entry): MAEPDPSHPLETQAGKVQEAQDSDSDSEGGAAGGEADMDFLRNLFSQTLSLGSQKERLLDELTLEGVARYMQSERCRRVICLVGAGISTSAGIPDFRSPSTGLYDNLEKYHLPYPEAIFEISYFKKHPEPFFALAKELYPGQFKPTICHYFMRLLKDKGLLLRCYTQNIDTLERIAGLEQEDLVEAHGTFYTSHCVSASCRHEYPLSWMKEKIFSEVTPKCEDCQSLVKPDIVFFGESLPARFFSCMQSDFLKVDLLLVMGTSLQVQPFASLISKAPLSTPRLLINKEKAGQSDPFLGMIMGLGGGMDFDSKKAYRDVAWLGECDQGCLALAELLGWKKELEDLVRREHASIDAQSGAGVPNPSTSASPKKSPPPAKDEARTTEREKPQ
The assay is described as follows: Inhibition of His6-tagged/TEV fused SIRT2 (unknown origin) expressed in Escherichia coli BL21 (DE3) preincubated for 15 mins followed by NAD+ addition and measured after 30 mins by FLucK529Ac based luminescence assay.

The target of assay [2] is T2, NAD-dependent protein deacetylase sirtuin-3, mitochondrial (Homo sapiens, UniProt Q9NTG7).
T2 sequence (Q9NTG7 whole entry): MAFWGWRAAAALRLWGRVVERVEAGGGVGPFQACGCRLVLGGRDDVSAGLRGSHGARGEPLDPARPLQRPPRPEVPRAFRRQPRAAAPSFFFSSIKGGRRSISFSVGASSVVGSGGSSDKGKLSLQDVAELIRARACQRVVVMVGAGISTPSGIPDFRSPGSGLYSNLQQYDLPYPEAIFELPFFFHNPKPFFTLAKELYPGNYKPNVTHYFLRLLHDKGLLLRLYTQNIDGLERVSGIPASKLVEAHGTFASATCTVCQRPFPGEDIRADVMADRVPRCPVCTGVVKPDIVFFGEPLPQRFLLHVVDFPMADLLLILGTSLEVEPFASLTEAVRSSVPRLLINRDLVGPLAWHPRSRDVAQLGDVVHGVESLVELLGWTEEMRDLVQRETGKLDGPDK
In words: Inhibition of His6-tagged/TEV fused SIRT3 (unknown origin) expressed in Escherichia coli BL21 (DE3) preincubated for 15 mins followed by NAD+ addition and measured after 30 mins by FLucK529Ac based luminescence assay.

Assay [3] has as its target T3, NAD-dependent protein deacetylase sirtuin-1 (Homo sapiens, UniProt Q96EB6).
T3 sequence (Q96EB6 whole entry): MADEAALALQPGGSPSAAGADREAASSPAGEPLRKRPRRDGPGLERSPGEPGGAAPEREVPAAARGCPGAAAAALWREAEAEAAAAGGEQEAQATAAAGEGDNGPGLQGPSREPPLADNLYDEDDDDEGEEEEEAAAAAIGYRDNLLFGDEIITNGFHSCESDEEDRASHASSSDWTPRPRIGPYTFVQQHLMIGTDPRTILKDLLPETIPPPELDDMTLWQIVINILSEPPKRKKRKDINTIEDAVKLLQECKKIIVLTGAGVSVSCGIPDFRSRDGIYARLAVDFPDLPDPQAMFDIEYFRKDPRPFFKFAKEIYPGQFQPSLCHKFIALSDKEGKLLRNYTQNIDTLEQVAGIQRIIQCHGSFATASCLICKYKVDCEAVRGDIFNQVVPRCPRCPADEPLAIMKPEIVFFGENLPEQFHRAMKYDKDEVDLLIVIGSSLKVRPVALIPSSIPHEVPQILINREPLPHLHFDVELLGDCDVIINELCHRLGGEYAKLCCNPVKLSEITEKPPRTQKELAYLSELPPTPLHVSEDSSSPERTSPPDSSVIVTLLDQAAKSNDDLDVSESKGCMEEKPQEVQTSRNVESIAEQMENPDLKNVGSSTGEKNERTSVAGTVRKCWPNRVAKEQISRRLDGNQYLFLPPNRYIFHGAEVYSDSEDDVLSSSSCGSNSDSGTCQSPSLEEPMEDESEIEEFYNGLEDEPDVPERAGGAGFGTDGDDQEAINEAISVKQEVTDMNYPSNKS
Description: Inhibition of His6-tagged SIRT1 (unknown origin) expressed in Escherichia coli BL21 (DE3) preincubated for 15 mins followed by NAD+ addition and measured after 30 mins by FLucK529Ac based luminescence assay

In the case of `NC(=O)C1CN(Cc2ccccc2F)c2ccccc2O1` (configuration not stated), the IC50 – broadly, the point on the concentration scale where inhibition reaches its midpoint – in assay [1] was 35.4 µM; in assay [2] it was more than 60 µM; in assay [3], 1.77 µM.

Turning to `CNC(=O)C1CN(Cc2ccccc2)c2ccccc2O1` (configuration not stated), the IC50 in assay [1], in assay [2] and in assay [3] was more than 60 µM each time.

In the case of `NC(=O)C1CN(S(=O)(=O)c2cccc3ccccc23)c2ccccc2O1` (configuration not stated), the IC50 in assay [1], in assay [2] and in assay [3] was more than 60 µM throughout.

For the compound `COc1ccc(CN2CC(C(N)=O)Oc3ccccc32)cc1` (configuration not stated), the IC50 in assay [1] is 31.8 µM; in assay [2], more than 60 µM; in assay [3], 1.45 µM.

On to `NC(=O)C1CN(Cc2ccccc2[N+](=O)[O-])c2ccccc2O1` (configuration not stated), for which the IC50 in assay [1] is 10.6 µM; in assay [2], more than 60 µM.

Regarding `CC(=O)Nc1cccc(CN2CC(C(N)=O)Oc3ccccc32)c1` (configuration not stated), the IC50 was more than 60 µM in assay [1], more than 60 µM in assay [2] and 2.4 µM in assay [3].

Consider `CS(=O)(=O)N1CC(C(N)=O)Oc2ccccc21` (configuration not stated), for which the IC50 in assay [1], in assay [2] and in assay [3] was more than 60 µM each time.

On to `Cc1ccc(S(=O)(=O)N2CC(C(N)=O)Oc3ccccc32)cc1` (configuration not stated), for which the IC50 in assay [1], in assay [2] and in assay [3] was more than 60 µM each time.

As for `CC(=O)N1CC(C(N)=O)Oc2ccccc21` (configuration not stated), the IC50 in assay [1], in assay [2] and in assay [3] was more than 60 µM throughout.

On to `NC(=O)C1CN(Cc2ccccc2N)c2ccccc2O1` (configuration not stated), for which the IC50 in assay [1] is 36.1 µM; in assay [2], more than 60 µM; in assay [3], 4.91 µM.

On to `NC(=O)C1CN(Cc2ccc([N+](=O)[O-])cc2)c2ccccc2O1` (configuration not stated), for which the results for the IC50 in assay [1], in assay [2] and in assay [3] were 34.7 µM, more than 60 µM and 1.06 µM, respectively.

Regarding `CCOC(=O)C1CNc2ccccc2O1` (configuration not stated), the half-maximal inhibitory concentration (IC50) in assay [1], in assay [2] and in assay [3] was more than 60 µM in each case.

Turning to `NC(=O)C1CN(Cc2ccc(C(F)(F)F)cc2)c2ccccc2O1` (configuration not stated), the IC50 in assay [1] was 22.8 µM; in assay [2] it was more than 60 µM; in assay [3], 28.5 µM.

As to `NC(=O)C1CN(Cc2csc(N)n2)c2ccccc2O1` (configuration not stated), the IC50 in assay [1] was more than 60 µM; in assay [2] it was more than 60 µM; in assay [3], 1.48 µM.

Regarding `CN1CC(C(N)=O)Oc2ccccc21` (configuration not stated), the IC50 in assay [1], in assay [2] and in assay [3] was more than 60 µM throughout.

Regarding `Cc1ccccc1CN1CC(C(N)=O)Oc2ccccc21` (configuration not stated), the IC50 is 22.2 µM in assay [1], more than 60 µM in assay [2] and 2.49 µM in assay [3].

For `NC(=O)C1CN(Cc2cc(C(F)(F)F)cc(C(F)(F)F)c2)c2ccccc2O1` (configuration not stated), the IC50 in assay [1] is 0.52 µM; in assay [2], more than 60 µM; in assay [3], 6.04 µM.

Consider `CC(C)CC(=O)N1CC(C(N)=O)Oc2ccccc21` (configuration not stated), for which the IC50 in assay [1], in assay [2] and in assay [3] was more than 60 µM throughout.

Take `NC(=O)C1CN(Cc2ccc3c(c2)OCO3)c2ccccc2O1` (configuration not stated): the IC50 is 26 µM in assay [1], more than 60 µM in assay [2] and 1.9 µM in assay [3].

On to `COC(=O)c1ccc(CN2CC(C(N)=O)Oc3ccccc32)cc1` (configuration not stated), for which the half-inhibitory concentration (IC50) in assay [1] is more than 60 µM; in assay [2] it was more than 60 µM; in assay [3], 3.45 µM.

Regarding `NC(=O)C1CN(Cc2ccccc2Cl)c2ccccc2O1` (configuration not stated), the IC50 in assay [1] is 33.6 µM; in assay [2], more than 60 µM; in assay [3], 0.67 µM.

For `O=C(O)C1CN(Cc2ccccc2)c2ccccc2O1` (configuration not stated), the half-maximal inhibitory concentration (IC50) in assay [1], in assay [2] and in assay [3] was more than 60 µM throughout.

Regarding `CC(=O)Nc1nc(CN2CC(C(N)=O)Oc3ccccc32)cs1` (configuration not stated), the results for the IC50 in assay [1] and in assay [3] were more than 60 µM and 0.62 µM, respectively.

Consider `CN(C)C(=O)C1CN(Cc2ccccc2)c2ccccc2O1` (configuration not stated), for which the IC50 in assay [1], in assay [2] and in assay [3] was more than 60 µM each time.

In the case of `O=C(O)C1CNc2ccccc2O1` (configuration not stated), the IC50 in assay [1], in assay [2] and in assay [3] was more than 60 µM each time.

Take `COc1ccc(C(=O)N2CC(C(N)=O)Oc3ccccc32)cc1` (configuration not stated): the IC50 in assay [1] and in assay [3] was more than 60 µM in each case.

As to `C#CCN1CC(C(N)=O)Oc2ccccc21` (configuration not stated), the half-inhibitory concentration (IC50) in assay [1], in assay [2] and in assay [3] was more than 60 µM each time.

As to `CC(C)(C)OC(=O)c1ccc(CN2CC(C(N)=O)Oc3ccccc32)cc1` (configuration not stated), the IC50 was 42 µM in assay [1], more than 60 µM in assay [2] and 20.1 µM in assay [3].

`O=C(C1CN(Cc2ccccc2)c2ccccc2O1)N1CCCCC1` (configuration not stated): the IC50 in assay [1], in assay [2] and in assay [3] was more than 60 µM in each case.

As to `NC(=O)C1CN(Cc2cn(Cc3ccccc3)nn2)c2ccccc2O1` (configuration not stated), the results for the IC50 in assay [1], in assay [2] and in assay [3] were 41.9 µM, more than 60 µM and 8.05 µM, respectively.

As to `NC(=O)C1CN(C(=O)c2cccnc2)c2ccccc2O1` (configuration not stated), the IC50 in assay [1], in assay [2] and in assay [3] was more than 60 µM in each case.

For the compound `N#Cc1cccc(NC(=O)N2CC(C(N)=O)Oc3ccccc32)c1` (configuration not stated), the IC50 in assay [1], in assay [2] and in assay [3] was more than 60 µM each time.

As to `NC(=O)C1CN(Cc2cnnn2Cc2ccccc2)c2ccccc2O1` (configuration not stated), the IC50 in assay [1] is 32.6 µM; in assay [2] it was more than 60 µM; in assay [3] it was 14.1 µM.

As to `NC(=O)C1CN(Cc2cccc(Br)c2)c2ccccc2O1` (configuration not stated), the results for the IC50 in assay [1], in assay [2] and in assay [3] were 1.76 µM, more than 60 µM and 1.27 µM, respectively.

With `COc1cccc(CN2CC(C(N)=O)Oc3ccccc32)c1` (configuration not stated), the concentration for half-maximal inhibition (IC50) in assay [1] is 15.4 µM; in assay [2], more than 60 µM; in assay [3] it was 2.13 µM.

For `COc1ccc(NC(=O)N2CC(C(N)=O)Oc3ccccc32)cc1` (configuration not stated), the half-inhibitory concentration (IC50) in assay [1], in assay [2] and in assay [3] was more than 60 µM each time.

Take `N#Cc1cccc(CN2CC(C(N)=O)Oc3ccccc32)c1` (configuration not stated): the IC50 was 11.2 µM in assay [1], more than 60 µM in assay [2] and 0.43 µM in assay [3].

As for `NC(=O)C1CN(Cc2cccnc2)c2ccccc2O1` (configuration not stated), the IC50 was 58 µM in assay [1], more than 60 µM in assay [2] and 4.7 µM in assay [3].

As to `NC(=O)C1CN(C(=O)c2ccc(CCl)cc2)c2ccccc2O1` (configuration not stated), the IC50 was more than 60 µM in assay [1], more than 60 µM in assay [2] and 48.8 µM in assay [3].

As for `N#Cc1ccccc1CN1CC(C(N)=O)Oc2ccccc21` (stereo in doubt; form 2), the results for the IC50 in assay [1], in assay [2] and in assay [3] were 34 µM, more than 60 µM and 0.11 µM, respectively.

Take `NC(=O)C1CN(Cc2ccccn2)c2ccccc2O1` (configuration not stated): the values for the IC50 in assay [1], in assay [2] and in assay [3] were more than 60 µM, more than 60 µM and 2.1 µM, respectively.

For the compound `CC(C)(C)OC(=O)CN1CC(C(N)=O)Oc2ccccc21` (configuration not stated), the IC50 in assay [1], in assay [2] and in assay [3] was more than 60 µM throughout.

Turning to `COC(=O)c1ccccc1CN1CC(C(N)=O)Oc2ccccc21` (configuration not stated), the IC50 in assay [1] is more than 60 µM; in assay [2], more than 60 µM; in assay [3] it was 0.49 µM.

As to `NC(=O)C1CN(Cc2ccccc2O)c2ccccc2O1` (configuration not stated), the IC50 in assay [1] is 12.3 µM; in assay [2], more than 60 µM; in assay [3] it was 0.82 µM.

Consider `NC(=O)C1CN(Cc2ccccc2C(F)(F)F)c2ccccc2O1` (configuration not stated), for which the IC50 is 25 µM in assay [1], more than 60 µM in assay [2] and 0.97 µM in assay [3].
